Results published in patent US6916802B2, “Amino ceramide-like compounds and therapeutic methods of use” (Genzyme Corporation, priority 2002, dated 2005).
Several values for one entry are separate records, joined by “and”; a condition that tells them apart may be missing. Identical values can stand only once. Marks after values point to notes of the source that are not given here.

Legend:
[1] = target: T1, 1-O-acylceramide synthase (Canis lupus familiaris, UniProt Q6XPZ3); assay: 1-O-acylceramide synthase (transacylase) assay; format: biochemical; conditions: D-threo enantiomers, FIG. 12
T1 construct: the 1-O-acylceramide synthase assayed in the cellular homogenates; endogenous in cells; host or cells: cellular homogenates (MDCK, from context)
T1 sequence (Q6XPZ3 32-408): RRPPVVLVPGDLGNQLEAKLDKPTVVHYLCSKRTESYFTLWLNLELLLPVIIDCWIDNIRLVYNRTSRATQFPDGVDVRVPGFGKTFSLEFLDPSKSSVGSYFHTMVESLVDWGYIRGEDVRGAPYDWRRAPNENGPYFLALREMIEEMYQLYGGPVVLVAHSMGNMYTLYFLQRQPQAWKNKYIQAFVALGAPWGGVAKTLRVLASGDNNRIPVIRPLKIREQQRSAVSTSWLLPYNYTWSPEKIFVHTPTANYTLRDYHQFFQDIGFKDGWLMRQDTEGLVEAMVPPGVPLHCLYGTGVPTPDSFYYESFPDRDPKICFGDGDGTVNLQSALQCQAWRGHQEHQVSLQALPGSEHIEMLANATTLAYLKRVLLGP
Text: Distinguishing Between Inhibition of GlcCer Synthase and 1-O-acylceramide Synthase Inhibition. […] An alternative pathway for ceramide metabolism was subsequently identified, the acylation of ceramide at the 1-hydroxyl position, which was blocked by both threo and erythro diastereomers of PDMP. The specificities of D-threo-P4, D-threo-3′,4′-ethylenedioxy-P4, and D-threo-(4′-hydroxy)-P4 for GlcCer synthase were studied by assaying the transacylase.

[2] = system: MDCK cells; assay: GlcCer, ceramide and diradylglycerol content of treated MDCK cells (Specific Example 2); format: cell-based, canine; conditions: for GlcCer lost from the cells (depletion): 11.3 nM inhibitor
Protocol: Cell culture and lipid extraction. One half million of MDCK cells were seeded into 10 cm style dish containing 8 ml serum free DMEM supplemented medium. Shayman, J. A. et al., J. Biol. Chem., 265:12135-12138 (1990). […] The GlcCer synthase inhibitors were added into the medium as a one to one complex with delipidated BSA. Abe, A. et al., J. Lipid. Res., 36:611-621 (1995); Abe, A. et al., Biochim. Biophys. Acta, 1299:331-341 (1996). The cells were incubated for 24 h or 48 h with the inhibitors. After the incubation, the cells were washed twice with 8 ml of cold PBS and fixed with 2 ml of cold methanol. The fixed cells were scraped and transferred to a glass tube. Another one ml of methanol was used to recover the remaining cells in the dish.
Three ml of chloroform was added to the tube and briefly sonicated using a water bath type sonicator. After centrifugation at 800 g for 5 min, the supernatant was transferred into another glass tube. The residues were reextracted with chloroform/methanol (1/1). After the centrifugation, the resultant supernatant was combined with the first one. The residues were air-dried and kept for protein analysis. Adding 0.9% NaCl to the supematant combined, the ratio of chloroform/methanol/aqueous was adjusted to 1/1/1. After centrifugation 800 g for 5 min, the upper layer was discarded. Methanol/water (1/1) with the same amount of volume of the lower layer was used to wash. The resultant lower layer was transferred into a small glass tube and dried down under a stream of nitrogen gas. A part of the lipid was used for lipid phosphate determination. Ames, B. N., Methods Enzymol., 8:115-118 (1966). The remainder was analyzed using HPTLC (Merck).
In order to determine whether inhibition of 1-O-acylceramide synthase was the basis for inhibitor mediated ceramide accumulation, the ceramide and diradylglycerol levels of MDCK cells treated D-threo-P4, D-threo-3′,4′-ethylenedioxy-P4, and D-threo-(4′-hydroxy)-P4 were measured (Table 9). MDCK cells (5×10^5) were seeded into a 10 cm dish and incubated for 24 h. Following the incubation, the cells were treated for 24 or 48 h with or without P4 or the phenyl substitute homologues. Both ceramide and diradylglycerol contents were determined by the method of Preis, J. et al., J. Biol. Chem., 261:8597-8600 (1986). GlcCer content was measured densitometrically by a video camera and use of NIH image 1.49. Significant increases in both ceramide and diradylglycerol occurred only in cells treated with inhibitor concentrations in excess of 1 mM. This was approximately 30-fold lower than the concentration required for inhibition of the 1-O-acylceramide synthase assayed in the cellular homogenates. […] Abe, A. et al., Biochim. Biophys. Acta, 1299:331-341 (1996).
(§1) Effects of D-threo-P4, D-threo4′-hydroxy-P4 and D-threo-3,4′-ethylenedioxy-P4 on GlcCer Synthesis and Cell Growth. To confirm the cellular specificity of D-threo-3′,4′-ethylenedioxy-P4 and D-threo-(4′-hydroxy)-P4 as compared to D-threo-P4, MDCK cells were treated with different concentrations of the inhibitors. The total protein amount in each sample was determined by the BCA method. In GlcCer analysis, lipid samples and standard lipids were applied to the same HPTLC plate pre-treated with borate and developed in a solvent consisting of C/M/W (63/24/4). The level of GlcCer was estimated from a standard curve obtained using a computerized image scanner. The values were normalized on the basis of the phospholipid content. The results are shown in FIG. 7, wherein each bar is the average values from three dishes, with error bars corresponding to one standard deviation. In the control, the total protein and GlcCer were 414±47.4 μg/dish and 24.3±1.97 ng/nmol phosphate, respectively.

[3] = substituent of phenyl group; estimated from the Table in Hogberg et al.; cited from earlier work
[4] = system: MCF-7 breast carcinoma cells; assay: Tumor cell growth in vitro (sulforhodamine B), MCF-7; format: cell-based, human; conditions: Homo sapiens, MCF7, rounded off to one digit, read-out: Inhibition of tumor cell growth in vitro, IC50
Protocol: (§2) Growth of cell lines. Comparisons of different inhibitors with regard to suppression of human cancer cell growth were made by the University of Michigan Cancer Center in vitro Drug Evaluation Core Laboratory. MCF-7 breast carcinoma cells, HT-29 colon adenocarcinoma cells, H-460 lung large cell carcinoma cells, and 9L brain gliosarcoma cells were grown in RPMI 1640 medium with 5% fetal bovine serum, 2 mM glutamine, 50 units/ml of penicillin, […] of streptomycin, and 0.1 mg/ml of neomycin. UMSCC-10A head and neck squamous carcinoma cells were grown in minimal essential medium with Earle salts and the same supplements. Medium components were from Sigma Chemical Co. Cells were plated in 96-well microtiter plates (1000 cells/well for H-460 and 9L cells, and 2000 cells/well for the other lines), and the test compounds were added 1 day later. The stock inhibitor solutions, 2 mM in 2 mM BSA, were diluted with different amounts of additional 2 mM BSA, then each solution was diluted 500-fold with growth medium to obtain the final concentrations indicated in the Figures and Tables.
(§3) Five days after plating the H-460 and 9L cells, or 6 days for the other lines, cell growth was evaluated by staining the adhering cells with sulforhodamine B and measuring the absorbance at 520 nm (Skehan, P. et al., “New Colorimetric Cytotoxicity Assay for Anticancer-Drug Screening,” J. Natl. Cancer Inst., 82:1107-1112 (1990)). The absorbance of the treated cultures is reported as percent of that of control cultures, to provide an estimate of the fraction of the cells that survived, or of inhibition of growth rate.

[5] = system: H-460 lung large cell carcinoma cells; assay: Tumor cell growth in vitro (sulforhodamine B), H-460; format: cell-based, human; conditions: Homo sapiens, NCI-H460, rounded off to one digit, read-out: Inhibition of tumor cell growth in vitro, IC50
Protocol: as §2, §3

[6] = system: UMSCC-10A head and neck squamous carcinoma cells; assay: Tumor cell growth in vitro (sulforhodamine B), UMSCC-10A; format: cell-based, human; conditions: Homo sapiens, rounded off to one digit, read-out: Inhibition of tumor cell growth in vitro, IC50
Protocol: as §2, §3

[7] = system: HT-29 colon adenocarcinoma cells; assay: Tumor cell growth in vitro (sulforhodamine B), HT-29; format: cell-based, human; conditions: Homo sapiens, rounded off to one digit, read-out: Inhibition of tumor cell growth in vitro, IC50
Protocol: as §2, §3

[8] = system: 9L brain gliosarcoma cells; assay: Tumor cell growth in vitro (sulforhodamine B), 9L; format: cell-based
Protocol: as §2, §3

[9] = system: GlcCer synthase of MDCK cell homogenates; assay: Inhibition of ceramide glucosyltransferase (GlcCer synthase) of MDCK cell homogenates; format: biochemical, canine; conditions: triplicate ± SD, samples partly isomer mixtures
Protocol: Assay of sphingolipid enzymes. The inhibitors were evaluated for their effectiveness against the GlcCer synthase of MDCK cell homogenates by incubation in a thermostatted ultrasonic bath (Radin N. S. et al., “Ultrasonic Baths as Substitutes for Shaking Incubator Baths,” Enzyme, 45:67-70 (1991)) with octanoyl sphingosine and uridinediphospho[^3H]glucose (Shukla, G. S. et al., “Glucosylceramide Synthase of Mouse Kidney: Further Characterization and Improved Assay Method,” Arch. Biochem. Biophys., 283:372-378 (1990)). The lipoidal substrate (85 μg) was added in liposomes made from 0.57 mg dioleoylphosphatidylcholine and 0.1 mg of Na sulfatide. Confluent cells were washed, then homogenized with a micro-tip sonicator at 0° C. for 3×30 sec; ˜0.2 mg of protein was used in each assay tube. In the case of the aromatic inhibitors, the test compound was simply evaporated to dryness from solution in the incubation tube. […] The aliphatic inhibitors, which appeared to be less soluble in water, were added as part of the substrate liposomes.

[10] = system: MDCK cells; assay: Cell growth of treated MDCK cells, total protein (Specific Example 2); format: cell-based, canine
Protocol: Cell culture and lipid extraction. One half million of MDCK cells were seeded into 10 cm style dish containing 8 ml serum free DMEM supplemented medium. Shayman, J. A. et al., J. Biol. Chem., 265:12135-12138 (1990). After 24 h the medium was replaced with 8 ml of the medium containing 0, 11.8, 118 or 1180 nM D-t-P4, D-t-3′,4′-ethylenedioxy-P4 or D-4′-hydroxy)-P4. The GlcCer synthase inhibitors were added into the medium as a one to one complex with delipidated BSA. Abe, A. et al., J. Lipid. Res., 36:611-621 (1995); Abe, A. et al., Biochim. Biophys. Acta, 1299:331-341 (1996). The cells were incubated for 24 h or 48 h with the inhibitors. After the incubation, the cells were washed twice with 8 ml of cold PBS and fixed with 2 ml of cold methanol. The fixed cells were scraped and transferred to a glass tube. Another one ml of methanol was used to recover the remaining cells in the dish.
as §1

CCCCCCCCCCCCCCCC(=O)N[C@H](CN1CCCC1)[C@H](O)c1ccccc1 [D-threo-P4]
activity in blocking 1-O-acylceramide synthase [1]: comparable activity
GlcCer lost from the cells (depletion) [2]: 27%
Ceramide (pmol/nmol phospholipids) ([2]; 11.3 nM, 24 h): 5.33 ± 0.41 pmol/nmol phospholipids
Diradylglycerol (pmol/nmol phospholipids) ([2]; 11.3 nM, 24 h): 24.1 ± 1.66 pmol/nmol phospholipids
Ceramide (pmol/nmol phospholipids) ([2]; 11.3 nM, 48 h): 5.68 ± 0.27 pmol/nmol phospholipids
Diradylglycerol (pmol/nmol phospholipids) ([2]; 11.3 nM, 48 h): 29.6 ± 0.73 pmol/nmol phospholipids
Ceramide (pmol/nmol phospholipids) ([2]; 113 nM, 24 h): 4.64 ± 0.38 pmol/nmol phospholipids
Diradylglycerol (pmol/nmol phospholipids) ([2]; 113 nM, 24 h): 26.6 ± 1.56 pmol/nmol phospholipids
Ceramide (pmol/nmol phospholipids) ([2]; 113 nM, 48 h): 7.08 ± 0.29 pmol/nmol phospholipids
Diradylglycerol (pmol/nmol phospholipids) ([2]; 113 nM, 48 h): 33.0 ± 2.63 pmol/nmol phospholipids
Ceramide (pmol/nmol phospholipids) ([2]; 1130 nM, 24 h): 5.10 ± 0.35 pmol/nmol phospholipids
Diradylglycerol (pmol/nmol phospholipids) ([2]; 1130 nM, 24 h): 27.1 ± 0.67 pmol/nmol phospholipids
Ceramide (pmol/nmol phospholipids) ([2]; 1130 nM, 48 h): 9.74 ± 0.53 pmol/nmol phospholipids
Diradylglycerol (pmol/nmol phospholipids) ([2]; 1130 nM, 48 h): 38.8 ± 1.11 pmol/nmol phospholipids
σ + π [3]: 0.00

CCCCCCCCCCCCCCCC(=O)NC(CN1CCCC1)C(O)c1ccccc1 (racemic) [BML-119, 1-phenyl-2-palmitoylamino-3-pyrrolidino-1-propanol]
IC50 [4]: 2 µM
IC50 [5]: 1 µM
IC50 [6]: 1 µM
IC50 [7]: 1 µM
activity at 1 µM ([8]; 9L cells, 1 μM inhibitor, read-out: growth, % of control growth): 71%
activity at 3 µM ([8]; 9L cells, 3 μM inhibitor, read-out: growth, % of control growth): 3%
IC50 ([8]; 9L, rounded off to one digit, read-out: Inhibition of tumor cell growth in vitro, IC50): 1 µM
Inhibition at 5 μM ([9]; 5 μM inhibitor, 5 µM): 50% and 51 ± 2.3^e % and 49 ± 0.8^f %
% Inhibition at 80 μM ([9]; 80 μM inhibitor, 80 µM): 94 ± 1.4^b % and 97 ± 0.1^c % and 96 ± 0.1^d %

CCCCCCCCCCCCCCCC(=O)N[C@H](CN1CCCC1)[C@H](O)c1ccc2c(c1)OCCO2 [D-threo-3′,4′-ethylenedioxy-P4, D-t-3′,4′-ethylenedioxy-1-phenyl-2-palmitoylamino-3-pyrrolidino-1-propanol]
total protein versus untreated cells ([10]; 1130 nM): significant decrease
total protein content versus untreated cells ([10]; 11.3 or 113 nM): little difference
activity in blocking 1-O-acylceramide synthase [1]: comparable activity
GlcCer lost from the cells (depletion) [2]: ~78%
GlcCer lost from the cells (depletion) ([2]; listed as D-t-3′,4′-ethylenedioxy-P4): 80%
Ceramide (pmol/nmol phospholipids) ([2]; 113 nM, 24 h): 5.21 pmol/nmol phospholipids
level of ceramide versus untreated cells ([2]; 1130 nM): two times higher
